Assay [1] addresses T1, BTK (Homo sapiens, UniProt Q06187). As to the kind of experiment: BTK degradation in patient-derived primary CLL cells (Western blot). The following applies: 18 h. Details: endogenous in cells. It counts as cell-based. Here is the method:
To assess the PROTACs’ efficiency in a clinically relevant model, we tested their ability to induce BTK degradation in primary cells from chronic lymphocytic leukemia (CLL) patients.
Figure 4 Degradation of BTK in patient-derived CLL cells. Patient-derived primary CLL cells were treated with BTK PROTACs for 18 h, followed by measuring BTK levels via Western blot. M-IGHV/UM-IGHV: mutated/unmutated immunoglobulin heavy chain variable region (IGHV) gene.
The LC–MS/MS instrument consi sted of an Acquit y I-class UPLC system (Waters) and Xevo TQ-XS triple quadrupole mass spectrometer (Waters) equipped with an electrospray ion source. Chromatographic separation was done on UPLC BEH C18 column (50mm × 2.1mm, 1.7-µm, Waters) using 50-100% gradient of 95%-aqueous acetonitrile with 0.1% formic acid in aqueous 0.1% formic acid during 2.5 minut e s, with a flow rate of 0. 3 mL min−1 and column temperature 30°C. Samples kept at 10°C were automatically injected in a volume of 3µl.
MS parameters (positive ion mode): capillary voltage - 2. 0kV, source temperature - […]
Targeting BTK in CLL cells […]
Following incubation with PROTACs as detailed, cells were collected and lysed in cell lysis buffer (Cell Signaling Technology, Beverly, MA) containing Phosphatase Inhibitor Cocktail 2 and protease inhibitor Cocktail (Sigma-Aldrich, St. Louis, MO). […] Bands were detected using MyECL Imager (Thermo Scientific, […]

The target of assay [2] is T1, BTK. As to the kind of experiment: Mechanism validation: pretreatment with ibrutinib, thalidomide-OH or bortezomib before PROTAC in Mino cells. Details: endogenous in cells; host or cells: Mino (ATCC CRL-3000), Ramos (ATCC CRL-1596), K562 (NCI-60). Type of assay: cell-based. The following applies: 2 h pretreatment, then PROTAC 24 h.

T1 sequence (Q06187 whole entry): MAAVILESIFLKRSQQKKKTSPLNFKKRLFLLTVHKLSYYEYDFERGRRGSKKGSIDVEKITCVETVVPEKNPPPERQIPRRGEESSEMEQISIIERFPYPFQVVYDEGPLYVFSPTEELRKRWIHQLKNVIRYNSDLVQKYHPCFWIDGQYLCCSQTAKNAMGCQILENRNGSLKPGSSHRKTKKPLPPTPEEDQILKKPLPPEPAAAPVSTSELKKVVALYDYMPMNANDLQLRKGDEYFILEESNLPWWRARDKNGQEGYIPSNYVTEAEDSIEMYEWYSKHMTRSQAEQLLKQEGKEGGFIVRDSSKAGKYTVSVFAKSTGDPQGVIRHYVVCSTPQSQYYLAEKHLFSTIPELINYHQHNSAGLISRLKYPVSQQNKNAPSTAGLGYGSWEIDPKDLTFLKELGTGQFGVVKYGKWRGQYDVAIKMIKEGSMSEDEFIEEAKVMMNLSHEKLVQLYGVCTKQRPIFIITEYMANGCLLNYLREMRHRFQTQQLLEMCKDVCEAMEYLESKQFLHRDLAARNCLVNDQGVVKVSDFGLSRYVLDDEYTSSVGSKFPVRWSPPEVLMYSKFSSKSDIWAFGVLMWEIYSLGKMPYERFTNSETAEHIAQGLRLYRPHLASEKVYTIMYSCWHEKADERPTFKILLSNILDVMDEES

For `Nc1ncnc2c1c(-c1ccc(Oc3ccccc3)cc1)nn2C1CCCN(C(=O)C=CCCCCOCCOCCOCCOCCOc2cccc3c2C(=O)N(C2CCC(=O)NC2=O)C3=O)C1` (stereo not drawn) [IR-2], the BTK degradation level entry on BTK [1] is “higher degradation levels than RC-2 and RC-3”.
Consider `Nc1ncnc2c1c(-c1ccc(Oc3ccccc3)cc1)nn2C1CCCN(C(=O)CCCCCCOCCOCCOCCOCCOc2cccc3c2C(=O)N(C2CCC(=O)NC2=O)C3=O)C1` (stereo not drawn) [NC-1], for which the BTK degradation level result on BTK [1] was “higher degradation levels than RC-2 and RC-3”. Moreover, the “BTK degradation after thalidomide-OH pretreatment” value at BTK [2] is “only slightly hindered by thalidomide”.

Values taken from article PMC7349657, “Efficient Targeted Degradation via Reversible and Irreversible Covalent PROTACs” (Journal of the American Chemical Society, 2020).
